Data as given in patent publication US20050215582A1, “Substituted pyrrolopyridines” (priority 2002, published 2005).
Where a name gives a salt, the structure may show the parent alone.

Target: T1, recombinant human Itk kinase domain fused with GST (Homo sapiens, UniProt Q08881)
T1 construct: recombinant human Itk kinase domain fused with GST; GST (Glutathione S-Transferase); made in house; host or cells: High five insect cells
T1 sequence (Q08881 363-615 limits assumed): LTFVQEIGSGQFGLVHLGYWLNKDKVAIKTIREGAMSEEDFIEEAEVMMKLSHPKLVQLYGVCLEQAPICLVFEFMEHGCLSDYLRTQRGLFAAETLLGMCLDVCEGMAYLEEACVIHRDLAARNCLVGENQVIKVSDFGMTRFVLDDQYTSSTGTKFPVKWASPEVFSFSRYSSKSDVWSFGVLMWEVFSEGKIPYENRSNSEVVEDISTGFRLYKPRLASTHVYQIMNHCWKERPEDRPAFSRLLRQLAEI
Assay: Itk LANCE TRF Assay
Type: biochemical
Conditions: 50 μM ATP, 2 μM biotinylated peptide substrate, 50 minutes RT; read-out: Inhibition of Kinase Itk (IC50 μM)
Method: The Itk kinase assay utilized recombinant human Itk kinase domain fused with GST (Glutathione S-Transferase). The protein was expressed in High five insect cells, purified in one step on an affinity chromatography glutathione column and stored in 50 mM Tris/HCl (pH 7.6), 150 mM NaCl, 5% (w/v) mannitol, 1 mM DTT, 30% glycerol at −70° C. The kinase substrate used in the assay was a biotinylated peptide derived from the Src-optimal substrate (Nair et at, J. Med. Chem., 38: 4276, 1995; biotin-AEEEIYGEFEAKKKK).
The assay additions were as follows: Test compounds (or controls; 1 μL in 100% DMSO) were added to black 96-well flat-bottomed plates (Greiner 655076) followed by 20 μL Itk in assay buffer and the reaction was started by adding 20 μL ATP and peptide substrate in assay buffer. The assay buffer constitution during phosphorylation was: 50 mM HEPES (pH 6.8), 10 mM MgCl2, 0.015% Brij 35, 1 mM DTT, 10% glycerol, 160 ng/well Itk, 2 μM peptide substrate and 50 μM ATP. The assay was stopped after 50 minutes (RT) by adding 150 μL ice-cold Stop solution (50 mM Tris/HCl, pH 7.5, 10 mM EDTA, 0.9% NaCl and 0.1% BSA) together with LANCE reagents (2 nM PT66-Eu^3+, Wallac AD0069 and 5 μg/ml Streptavidin-APC, Wallac AD0059. Both concentrations were final in stopped assay solution). The plates were measured on a Wallac 1420 Victor 2 instrument with TRF settings after 1 h incubation, and the ratio (665 signal/615 signal)*10000 was used to calculate the inhibition values. IC50 values were determined using XLfit.

| SMILES | IC50 |
| --- | --- |
| Cc1cnc2[nH]c(-c3ccco3)c(C3CCCN(C(N)=O)C3)c2c1 (stereo not drawn) [Example 5, 3-[2-(2-Furyl)-5-methyl-1H-pyrrolo[2,3-b]pyridin-3-yl]piperidine-1-carboxamide] | 0.26 µM |
| CN(C)CCCOc1ccc(-c2[nH]c3ncc(Cl)cc3c2C2CCNCC2)cc1 [Example 8, {3-[4-(5-Chloro-3-piperidin-4-yl-1H-pyrrolo[2,3-b]pyridin-2-yl)phenoxy]propyl}dimethylamine] | 0.18 µM |
| COc1ccc(-c2[nH]c3ncc(Br)cc3c2N2CCNCC2)cc1 [Example 21, 5-Bromo-2-(4-methoxy-phenyl)-3-piperazin-1-yl-1H-pyrrolo[2,3-b]pyridine trifluoroacetate] | 0.09 µM |
